Where two headings read alike, the source gives them in different places.
Assays:
A549 cells = experiment: MTT cytotoxicity assay, A549; type: cell-based, human
From the text: A549 cell line (lung carcinoma from human) (European Collection of Cell Culture) and HT-29 cell line (colorectal adenocarcinoma from human) (American Type Culture Collection) were chosen to evaluate the cytotoxicity of novel compounds.
(§1) The MTT assay was used to evaluate cell metabolic activity. The test principle is based on the determination of cell viability by measuring the metabolic activity in mitochondria. Enzymatically active mitochondria reduce the water-soluble MTT (3-(4,5-dimethylthiazol-2-yl)-2,5 diphenyltetrazoliumbromide) to blue–violet insoluble formazan. The number of viability cells is proportional to the colour intensity determined by photometric measurements (an analytical wavelength 570 nm) after dissolving the formazan in Dimethylsulfoxide (DMSO) (Serva) and Sorensen’s glycine buffer. MTT (Sigma Aldrich) was dissolved in Phosphate Buffered Saline (PBS) (PAN-Biotech) at a concentration of 0.5 mg/mL. Sorensen’s glycine buffer is made of 0.1 M glycine and 0.1 M NaCl, at pH 10.5. Studied compounds were dissolved in DMSO in order to receive stock solutions.
(§2) For the assay, cells were seeded into 96-well plates at density 10^4 cells per well and cultured for 24 h at 37 °C and 5% CO2. Then medium was removed, and cells were exposed to the 100 µL of the compound solutions over a range of concentrations (final DMSO concentration was below 0.2%) or nothing but culture medium (blank control). Pure DMSO was used as a positive control. After 24 h of incubation with the compound solutions, medium was removed and 50 µL of the MTT solution was added to each well and incubated in the dark for additional 2 h at 37 °C. Then the MTT solution was carefully removed and 100 µL of DMSO was added. Plates were incubated for 10 min at room temperature. Finally, 5 µL of Sorensen Buffer was added to each well. Plate was swayed, and the absorbance was measured by using microplate reader (Synergy H1, BioTek, Winooski, VT, USA) at a wavelength of 570 nm. The cell viability was expressed as a percentage of the control values (blank). The experiments were done in triplicate.

HT-29 cells [1] = experiment: MTT cytotoxicity assay, HT-29; type: cell-based; conditions: Homo sapiens, read-out: IC50 µM ± SD against HT-29
From the text: as §1, §2

[2] = molecular target: T1, hyaluronidase from bovine testes Type I-S (Bos taurus, UniProt Q2YDK3); experiment: Hyaluronidase inhibition assay (turbidimetric); type: biochemical; conditions: read-out: HYAL IC50 ± SD
T1 construct: purchased Sigma Aldrich; host or cells: bovine testes (tissue-derived preparation)
T1 sequence (Q2YDK3 36-553): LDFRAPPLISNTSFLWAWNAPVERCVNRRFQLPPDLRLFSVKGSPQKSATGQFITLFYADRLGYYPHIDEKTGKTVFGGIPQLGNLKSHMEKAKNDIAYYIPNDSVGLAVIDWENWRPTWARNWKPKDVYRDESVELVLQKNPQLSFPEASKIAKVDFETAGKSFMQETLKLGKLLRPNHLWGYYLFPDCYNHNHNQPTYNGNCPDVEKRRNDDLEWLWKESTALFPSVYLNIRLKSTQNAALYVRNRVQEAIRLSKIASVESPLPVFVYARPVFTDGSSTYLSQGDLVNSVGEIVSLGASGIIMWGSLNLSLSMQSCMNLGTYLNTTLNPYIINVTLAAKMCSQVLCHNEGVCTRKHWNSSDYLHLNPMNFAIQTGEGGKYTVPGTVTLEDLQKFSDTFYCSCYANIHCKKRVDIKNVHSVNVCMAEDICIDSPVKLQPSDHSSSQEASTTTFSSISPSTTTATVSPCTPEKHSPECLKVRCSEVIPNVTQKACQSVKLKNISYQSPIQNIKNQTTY

supercoiled pUC19 DNA = conditions: 100 µM; human Topoisomerase I
EA.hy926 cells = experiment: MTT cytotoxicity assay, EA.hy926; type: cell-based, human
From the text: The EA.hy926 cells (the human umbilical vein, somatic cell hybrid) (American Type Culture Collection) are immortalized human umbilical vein endothelial cells. They have morphological, phenotypic and functional characteristics of human endothelial cells, without the limited lifespan. This cell line has been considered as a good model for anticancer drug screening and was chosen to evaluate the endothelial cytotoxicity of novel compounds.
as §1, §2

PARP-1 = experiment: Western blot of PARP-1 cleavage, HT-29; type: cell-based, human; conditions: HT-29, 24 h, IC50 and 1/2IC50
Description: (§3) Then, cells were treated with chosen compounds. After 24 h of incubation, monolayer and supernatant were harvested and washed in cold PBS. Cells were centrifuged—monolayer at 1200 rpm for 10 min, supernatant 3500 rpm for 10 min. Pellets were dissolved in RIPA Lysis and Extraction buffer (Bio-Rad) containing Phosphatase Inhibitor Cocktail 3 (Sigma Aldrich) and Protease Inhibitor Cocktail (Sigma Aldrich). Samples were incubated in ice for 30 min and mixed every 10 min. Then, samples were centrifuged at 12,000 rpm for 25 min. Protein concentration in supernatants was measured in triplicate using a Protein Assay (Bio-Rad). Proteins were separated by SDS–polyacrylamide gel electrophoresis. Separating and stacking gels were made of different ratios of water, Tris–HCl pH 6.8 and pH 8.8, 10% SDS (Sigma Aldrich), Acrylamide/bis-acrylamide (Sigma Aldrich), 10% APS (Sigma Aldrich), TEMED (Sigma Aldrich). 7.5% gels were prepared for analysis PARP-1, whereas 12% gels prepared for γ-H2AX. After separation on SDS–polyacrylamide gels, proteins were electroblotted on nitrocellulose membrane in Transfer Buffer (Glycine, Tris, Methanol). Membranes were washed in TBS/0.1% or 0.05% Tween20 solution and blocked in Tris-buffered saline with 5% of non-fated dried milk for 1 h. Membranes were then incubated overnight with primary antibodies—anti-PARP-1 (Cell Signaling Technology), anti-γ-H2A.X (Cell Signaling Technology), anti-β-actin (Cell Signaling Technology) in cold room (6 °C). After incubation, membranes well washed with TBS/Tween solution and blocked with and horseradish peroxidase-conjugated secondary antibodies (Bio-Rad) for 1 h in cold room. Protein bands were visualized using ECL™ Prime Western Blotting Detection Reagents (Sigma Aldrich) Healthcare and Carestream Kodak autoradiography GBX fixer/replenisher (Sigma Aldrich) with Developer and Replenisher (Carestream) in the dark room. Results were obtained on Autoradiography Film (Santa Cruz Biotechnology). Densitometric analysis was performed by using a software program (ImageJ). […]

γ-H2AX = experiment: Western blot of γ-H2AX, HT-29; type: cell-based, human; conditions: HT-29, 24 h, IC50 and 1/2IC50
Description: as §3

SH-SY5Y cells [3] = experiment: Cytoprotection against rotenone/oligomycin A, pre-incubation, MTT; type: cell-based, human; conditions: for Cytoprotection: pre-incubation with rotenone/oligomycin A;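 as to Cytoprotection: Toxic mixture Rotenone 30 µM plus Oligomycin A 10 µM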
Description: Rotenone with oligomycin A (R/O) were taken to induce mitochondrial ROS by blocking of complexes I and V of the mitochondrial electron transport chain. It causes free radical production and blockade of ATP synthesis. In the pre-incubation experiment, it could be assessed whether the compounds have cytoprotective properties due to the activation of endogenous antioxidant pathways. In the co-incubation could be shown whether compounds are free-radical scavengers. MTT assay was a test of choice, because in this assay mitochondrial activity is measured. […] It can be determined whether novel compound would protect cells from both apoptotic and necrotic death resulting from the increase of intracellular ROS. In both experiments, trolox was used as a reference compound. […] After this time, toxic mixture was added, and cells were maintained for an additional 24 h in the presence of the compounds.

HT-29 cells [4] = experiment: Reactive oxygen species assay (DCFH-DA), HT-29; type: cell-based, human; conditions: compound at IC50 24 h plus H2O2, H2O2 only 1.88-fold
Description: After incubation, compounds were added into the wells and further incubated for next 24 h. H2O2 (1 mM) was added at 22nd h of incubation with compounds. H2O2 was used as a positive control. 30 min before the analysis, DCFH-DA (20 µM) was added to the wells. After incubation, cells were harvested and washed in PBS. Then, cells were centrifuged at 1500 rpm for 10 min. Medium was removed and cells were suspended in PBS. Analysis was performed on BD Accuri C6 Flow Cytometry (Becton–Dickinson).

SH-SY5Y cells [5] = experiment: Cytoprotection against H2O2 (100 µM), MTT; conditions: for Cells viability (%) ± SD after 24 h of incubation with compound and H2O2: H2O2 only 82.74%; for viability at 1 µM: Homo sapiens, 24 h, read-out: Cells viability (%) ± SD after 24 h of incubation with compound and H2O2
SH-SY5Y cells [6] = experiment: Cytoprotection against rotenone/oligomycin A, co-incubation, MTT; type: cell-based, human; conditions: co-incubation with rotenone/oligomycin A
Description: In the co-incubation assay, compounds and mixture of R/O were incubated together for 24 h. […] It turned out that none of the compounds (apart from 1i at the concentration of 0.001 µM and cytoprotection of 2.99%) had cytoprotective properties in the whole range of concentrations (Fig. 17). Compounds were not able to capture free radicals; therefore they cannot be classified as free-radical scavengers.

[7] = Homo sapiens, A549, MTT, 24 h incubation, read-out: IC50 µM ± SD against A549

## O=C(NCCNc1c2c(nc3ccccc13)CCCC2)c1cccc(I)c1 [Compound 1d]
A549 cells; [7]
  IC50: 41.2 ± 1.27 µM
HT-29 cells [1]; HT-29, MTT, 24 h incubation
  IC50: 7.62 ± 0.19 µM
[2]
  IC50: 300 ± 6.3 µM

## COc1cc(NS(C)(=O)=O)ccc1Nc1c2ccccc2nc2ccccc12 [amsacrine, reference compound]
Supercoiled pUC19 DNA
  Intercalation: supercoiled pUC19 DNA band (in words): stronger intercalator than EB

## O=C(NCCNc1c2c(nc3ccccc13)CCCC2)c1ccccc1I [Compound 1a]
A549 cells; [7]
  IC50: 36 ± 1.74 µM
HT-29 cells [1]; HT-29, MTT, 24 h incubation
  IC50: 17.3 ± 1.22 µM
[2]
  IC50: 234 ± 7.9 µM

## Heparin [reference compound]
[2]
  IC50: 56.4 ± 0.78 µM

## O=C(NCCNc1c2c(nc3ccccc13)CCCC2)c1ccc(I)cc1 [Compound 1g]
A549 cells; [7]
  IC50: 20.8 ± 1.58 µM
HT-29 cells [1]; HT-29, MTT, 24 h incubation
  IC50: 8.16 ± 0.44 µM
[2]
  IC50: 191 ± 10.8 µM

## O=C(NCCCCNc1c2c(nc3ccccc13)CCCC2)c1cccc(I)c1 [Compound 1f]
A549 cells; Homo sapiens, A549, 24 h, read-out: IC50 µM ± SD against A549, MTT, 24 h incubation
  IC50: 23.5 µM
A549 cells; read-out: IC50 µM ± SD against A549, MTT, 24 h incubation
  IC50: 26.4 ± 2.45 µM
HT-29 cells [1]; HT-29, 24 h
  IC50: 8.52 ± 0.1 µM
EA.hy926 cells; Homo sapiens, EA.hy 926, 24 h, read-out: IC50 µM ± SD against EA.hy926, MTT, 24 h incubation
  IC50: 11.7 µM
EA.hy926 cells; read-out: IC50 µM ± SD against EA.hy926, MTT, 24 h incubation
  IC50: 12.4 ± 1.31 µM
PARP-1
  Cleaved PARP-1 (89 kDa) level (in words): lower apoptosis at IC50 concentrations
γ-H2AX
  γ-H2AX protein level / DNA damage (in words): strongest H2AX phosphorylation
SH-SY5Y cells [3]; 0.001 µM
  Cytoprotection: 57.16%
SH-SY5Y cells [3]; 0.01 µM
  Cytoprotection: 35.65%
SH-SY5Y cells [3]; 0.1 µM
  Cytoprotection: 35.21%
SH-SY5Y cells [3]; 1 µM
  Cytoprotection: 30.81%
SH-SY5Y cells [3]; rotenone/oligomycin A, range of concentration 1–0.001 µM
  Cytoprotective properties in the pre-incubation assay (in words): showed their action against oxidative stress in the whole range of concentrations
HT-29 cells [4]
  Increase in ROS level (DCF fluorescence) in comparison with non-treated control: 1.87 fold
SH-SY5Y cells [5]; H2O2 100 µM, concentration: 1b 16.26, 1c 6.79, 1e 11.75, 1f 4.26, 1i 5.90 µM
  Cells viability (%) ± SD after 24 h of incubation with compound and H2O2: 79.45 ± 9.87%
SH-SY5Y cells [5]; H2O2 100 µM, concentration: 1b 65.04, 1c 27.16, 1e 46.98, 1f 17.04, 1i 29.74 µM
  Cells viability (%) ± SD after 24 h of incubation with compound and H2O2: 23.85 ± 2.08 %
SH-SY5Y cells [5]
  viability at 1 µM: 94.3 ± 7.26%
Supercoiled pUC19 DNA
  Intercalation: supercoiled pUC19 DNA band (in words): bands at the same level as EB

## Cc1c(C)c2c(c(C)c1O)CCC(C)(C(=O)O)O2 (centres unmarked) [Trolox, 6-hydroxy-2,5,7,8-tetramethylchroman-2-carboxylic acid, reference compound]
SH-SY5Y cells [3]; 0.001 µM
  Cytoprotection: 0.98%
SH-SY5Y cells [3]; 1 µM
  Cytoprotection: 0.53%
SH-SY5Y cells [6]; 0.001 µM
  Cytoprotection: 9.08%
SH-SY5Y cells [6]; 0.01 µM
  Cytoprotection: 8.18%
SH-SY5Y cells [6]; 0.1 µM
  Cytoprotection: 4.02%
SH-SY5Y cells [6]; 1 µM
  Cytoprotection: 6.12%
SH-SY5Y cells [5]; H2O2 100 µM, 1 µM
  Cytoprotection against H2O2: 96.38%
SH-SY5Y cells [5]
  viability at 1 µM: 99.4 ± 9.81%

## O=c1[nH]cc(F)c(=O)[nH]1 [5-Fluorouracil, reference compound]
HT-29 cells [1]; HT-29, MTT, 24 h incubation
  IC50: 1630 ± 49.3 µM
EA.hy926 cells; Homo sapiens, EA.hy 926, MTT, 24 h incubation, read-out: IC50 µM ± SD against EA.hy926
  IC50: > 1800 µM

## O=C(NCCCNc1c2c(nc3ccccc13)CCCC2)c1ccc(I)cc1 [Compound 1h]
A549 cells; [7]
  IC50: 21.4 ± 1.54 µM
HT-29 cells [1]; HT-29, MTT, 24 h incubation
  IC50: 9.4 ± 1.65 µM
[2]
  IC50: 201 ± 8.36 µM

Source: PMC6745035, “Novel tetrahydroacridine derivatives with iodobenzoic moieties induce G0/G1 cell cycle arrest and apoptosis in A549 non-small lung cancer and HT-29 colorectal cancer cells” (Molecular and Cellular Biochemistry, 2019)
